These results are taken from patent US9532990B2 (Zhejiang DTRM Biopharma Co. Ltd., priority 2014, dated 2017).

Like-named read-outs stand apart in the source and are kept apart here. Some results are limits rather than exact numbers.

The target in the experiment is BTK wild type (Homo sapiens (Human), UniProt Q06187). The experiment can be described thus: Inhibition assay of BTK kinase activity (HTRF). Format: biochemical. The procedure:
Inhibition Assay of BTK Kinase Activity:
The enzyme reaction mixture of BTK wild type standard HTRF assay contained 1 nM BTK wild type, 1 μM biotin-TK1 peptide, and 30 μM ATP in a buffer. The enzyme reaction were carried out at room temperature for 60 minutes. […] The plates were incubated at room temperature for 60 minutes and then read in the Envision plate reader.

Where [1] appears, read: all compounds with IC50 of less 10 nM, read-out: IC50 (BTK).

Chain of BTK wild type (Q06187 whole entry): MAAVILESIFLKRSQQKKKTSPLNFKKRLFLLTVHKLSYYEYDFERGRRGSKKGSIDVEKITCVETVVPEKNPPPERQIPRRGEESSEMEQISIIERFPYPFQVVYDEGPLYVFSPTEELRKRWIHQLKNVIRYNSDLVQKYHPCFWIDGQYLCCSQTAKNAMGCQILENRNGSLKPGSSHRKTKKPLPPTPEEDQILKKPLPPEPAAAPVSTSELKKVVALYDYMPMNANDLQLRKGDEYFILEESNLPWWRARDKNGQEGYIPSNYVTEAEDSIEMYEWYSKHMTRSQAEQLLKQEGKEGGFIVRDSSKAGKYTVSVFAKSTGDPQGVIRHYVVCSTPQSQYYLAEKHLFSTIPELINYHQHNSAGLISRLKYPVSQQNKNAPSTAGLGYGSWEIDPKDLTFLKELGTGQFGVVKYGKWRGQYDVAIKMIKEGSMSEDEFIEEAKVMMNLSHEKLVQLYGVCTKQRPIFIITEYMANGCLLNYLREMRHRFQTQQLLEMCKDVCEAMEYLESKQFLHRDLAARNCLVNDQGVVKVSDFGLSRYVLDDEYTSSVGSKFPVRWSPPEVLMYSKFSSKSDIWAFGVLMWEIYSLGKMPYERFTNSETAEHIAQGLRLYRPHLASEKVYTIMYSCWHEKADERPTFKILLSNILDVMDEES

Turning to `C=CC(=O)N1CCCC(n2nc(-c3ccc(C(=O)c4ccc(F)cc4)c(F)c3)c3c(N)ncnc32)C1` (centres unmarked) [Compound 1, 1-(3-(4-amino-3-(3-fluoro-4-(4-fluorobenzoyl)phenyl)-1H-pyrazolo[3,4-d]pyrimidin-1-yl)piperidin-1-yl)prop-2-en-1-one], the IC50 – broadly, the concentration needed to halve the response being measured – (read-out: BTK IC50) is 66 nM.

In the case of `C=CC(=O)N1CCCC(n2nc(-c3ccc(C(=O)c4ccc(F)cc4)cc3F)c3c(N)ncnc32)C1` (centres unmarked) [Compound 2, 1-(3-(4-amino-3-(2-fluoro-4-(4-fluorobenzoyl)phenyl)-1H-pyrazolo[3,4-d]pyrimidin-1-yl)piperidin-1-yl)prop-2-en-1-one], the IC50 (read-out: BTK IC50) worked out at 5 nM.

For the compound `C=CC(=O)N1CCCC(n2nc(-c3ccc(C(=O)c4cccc(F)c4)c(F)c3)c3c(N)ncnc32)C1` (centres unmarked) [Compound 3, 1-(3-(4-amino-3-(3-fluoro-4-(3-fluorobenzoyl)phenyl)-1H-pyrazolo[3,4-d]pyrimidin-1-yl)piperidin-1-yl)prop-2-en-1-one], the IC50 (read-out: BTK IC50) was determined as 10 nM.

With `C=CC(=O)N1CCCC(n2nc(-c3ccc(C(=O)c4ccccc4F)cc3F)c3c(N)ncnc32)C1` (centres unmarked) [Compound 4, 1-(3-(4-amino-3-(2-fluoro-4-(2-fluorobenzoyl)phenyl)-1H-pyrazolo[3,4-d]pyrimidin-1-yl)piperidin-1-yl)prop-2-en-1-one], where the note is “read-out: BTK IC50”, the IC50 is 2 nM.

On to `Cc1oncc1C(=O)N1CCCC(n2nc(-c3ccc(C(=O)c4cccc(F)c4)cc3F)c3c(N)ncnc32)C1` (centres unmarked) [Compound 6, (3-(4-amino-3-(2-fluoro-4-(3-fluorobenzoyl)phenyl)-1H-pyrazolo[3,4-d]pyrimidin-1-yl)piperidin-1-yl)(5-methylisoxazol-4-yl)methanone], for which, where the note is “read-out: BTK IC50”, the IC50 came to 138 nM.

`C/C(O)=C(/C#N)C(=O)N1CCCC(n2nc(-c3ccc(C(=O)c4cccc(F)c4)cc3F)c3c(N)ncnc32)C1` (centres unmarked) [Compound 7, (E)-2-(3-(4-amino-3-(2-fluoro-4-(3-fluorobenzoyl)phenyl)-1H-pyrazolo[3,4-d]pyrimidin-1-yl)piperidine-1-carbonyl)-3-hydroxybut-2-enenitrile]: the IC50 (read-out: BTK IC50) is 730 nM.

Regarding `C=CS(=O)(=O)N1CCCC(n2nc(-c3ccc(C(=O)c4cccc(F)c4)cc3F)c3c(N)ncnc32)C1` (centres unmarked) [Compound 8, (4-(4-amino-1-(1-(vinylsulfonyl)piperidin-3-yl)-1H-pyrazolo[3,4-d]pyrimidin-3-yl)-3-fluorophenyl)(3-fluorophenyl)methanone], the IC50 (read-out: BTK IC50) came out at 2 nM.

As to `Nc1ncnc2c1c(-c1ccc(C(=O)c3cccc(F)c3)cc1F)nn2C1CCCN(C(=O)C2CO2)C1` (centres unmarked) [Compound 9, (3-(4-amino-3-(2-fluoro-4-(3-fluorobenzoyl)phenyl)-1H-pyrazolo[3,4-d]pyrimidin-1-yl)piperidin-1-yl)(oxiran-2-yl)methanone], for the setting “read-out: BTK IC50”, the IC50 turned out to be 83 nM.

Regarding `CC(C)(C)OC(=O)N1CCCC(n2nc(-c3ccc(Oc4ccccc4[N+](=O)[O-])cc3F)c3c(N)ncnc32)C1` (centres unmarked) [Compound 10, tert-butyl 3-(4-amino-3-(2-fluoro-4-(2-nitrophenoxy)phenyl)-1H-pyrazolo[3,4-d]pyrimidin-1-yl)piperidine-1-carboxylate], the 50% inhibitory concentration (IC50) (read-out: BTK IC50) amounted to 1970 nM.

`C=CC(=O)N1CCCC(n2nc(-c3ccc(Oc4c(F)c(F)cc(F)c4F)cc3F)c3c(N)ncnc32)C1` (centres unmarked) [Compound 11, 1-(3-(4-amino-3-(2-fluoro-4-(2,3,5,6-tetrafluorophenoxy)phenyl)-1H-pyrazolo[3,4-d]pyrimidin-1-yl)piperidin-1-yl)prop-2-en-1-one]: the IC50 under setting [1] was under 10 nM and the IC50 (read-out: BTK IC50) stood at 0.8 nM.

For `C=CC(=O)N1CCCC(n2nc(-c3ccc(Oc4cccc(F)c4[N+](=O)[O-])cc3F)c3c(N)ncnc32)C1` (centres unmarked) [Compound 12, 1-(3-(4-amino-3-(2-fluoro-4-(3-fluoro-2-nitrophenoxy)phenyl)-1H-pyrazolo[3,4-d]pyrimidin-1-yl)piperidin-1-yl)prop-2-en-1-one], the half-inhibitory concentration (IC50) by setting is: under setting [1], under 10 nM; (read-out: BTK IC50) 2 nM.

Consider `C=CC(=O)N[C@H]1CC[C@@H](n2nc(-c3ccc(Oc4cccc(F)c4)cc3F)c3c(N)ncnc32)CC1` [Compound 13, N-((1s,4s)-4-(4-amino-3-(2-fluoro-4-(3-fluorophenoxy)phenyl)-1H-pyrazolo[3,4-d]pyrimidin-1-yl)cyclohexyl)acrylamide], for which the 50% inhibitory concentration (IC50) runs as follows: under setting [1], under 10 nM; (read-out: BTK IC50) 1 nM.

With `C=CC(=O)N[C@H]1CC[C@H](n2nc(-c3ccc(Oc4cccc(F)c4)cc3F)c3c(N)ncnc32)CC1` [Compound 14, N-((1r,4r)-4-(4-amino-3-(2-fluoro-4-(3-fluorophenoxy)phenyl)-1H-pyrazolo[3,4-d]pyrimidin-1-yl)cyclohexyl)acrylamide], the IC50 (read-out: BTK IC50) was 9 nM.

For the compound `C=CC(=O)N1CCC(n2nc(-c3ccc(Oc4cccc(F)c4)cc3F)c3c(N)ncnc32)C1` (centres unmarked) [Compound 15, 1-(3-(4-amino-3-(2-fluoro-4-(3-fluorophenoxy)phenyl)-1H-pyrazolo[3,4-d]pyrimidin-1-yl)pyrrolidin-1-yl)prop-2-en-1-one], the concentration for half-maximal inhibition (IC50) under setting [1] was under 10 nM and the IC50 (read-out: BTK IC50) is 3 nM.

On to `C=CC(=O)N[C@@H]1CC[C@@H](n2nc(-c3ccc(Oc4cccc(F)c4)cc3F)c3c(N)ncnc32)C1` [Compound 16, N-((1r,3r)-3-(4-amino-3-(2-fluoro-4-(3-fluorophenoxy)phenyl)-1H-pyrazolo[3,4-d]pyrimidin-1-yl)cyclopentyl)acrylamide], for which the IC50 under setting [1] was under 10 nM and the IC50 (read-out: BTK IC50) worked out at 3 nM.

Regarding `C=CC(=O)N[C@H]1CC[C@@H](n2nc(-c3ccc(Oc4cccc(F)c4)cc3F)c3c(N)ncnc32)C1` [Compound 17, N-((1s,3r)-3-(4-amino-3-(2-fluoro-4-(3-fluorophenoxy)phenyl)-1H-pyrazolo[3,4-d]pyrimidin-1-yl)cyclopentyl)acrylamide], the IC50 runs as follows: under setting [1], under 10 nM; (read-out: BTK IC50) 4 nM.

On to `C=CC(=O)N1CCCC(n2nc(-c3ccc(Oc4cccc(F)c4)cc3F)c3c(N)ncnc32)C1` (centres unmarked) [Compound 18, 1-(3-(4-amino-3-(2-fluoro-4-(3-fluorophenoxy)phenyl)-1H-pyrazolo[3,4-d]pyrimidin-1-yl)piperidin-1-yl)prop-2-en-1-one], for which the IC50 by setting is: under setting [1], under 10 nM; (read-out: BTK IC50) 3 nM.

Regarding `C=CC(=O)N1CCCC(n2nc(-c3ccc(Oc4ccccc4NS(C)(=O)=O)cc3F)c3c(N)ncnc32)C1` (centres unmarked) [Compound 19, N-(2-(4-(1-(1-acryloylpiperidin-3-yl)-4-amino-1H-pyrazolo[3,4-d]pyrimidin-3-yl)-3-fluorophenoxy)phenyl)methanesulfonamide], the IC50 (read-out: BTK IC50) worked out at 67 nM.

Take `C=CC(=O)N1CCCC(n2nc(-c3ccc(Oc4cccc(NS(C)(=O)=O)c4)cc3F)c3c(N)ncnc32)C1` (centres unmarked) [Compound 20, N-(3-(4-(1-(1-acryloylpiperidin-3-yl)-4-amino-1H-pyrazolo[3,4-d]pyrimidin-3-yl)-3-fluorophenoxy)phenyl)methanesulfonamide]: the half-maximal inhibitory concentration (IC50) is under 10 nM under setting [1] and 4 nM (read-out: BTK IC50).

On to `C=CC(=O)N1CCCC(n2nc(-c3ccc(Oc4c(F)ccc(F)c4F)cc3F)c3c(N)ncnc32)C1` (centres unmarked) [Compound 21, 1-(3-(4-amino-3-(2-fluoro-4-(2,3,6-trifluorophenoxy)phenyl)-1H-pyrazolo[3,4-d]pyrimidin-1-yl)piperidin-1-yl)prop-2-en-1-one], for which the IC50 reads like this: under setting [1], under 10 nM; (read-out: BTK IC50) 5 nM.
